Entries after “also recorded” stand apart in the source; their conditions may differ.

Here are results for 4 compounds from patent publication US20170042929A9, “Methods of Treating Neurological Diseases” (priority 2012, published 2017).

For test [1], the system named is isolated mouse hippocampus. Briefly: Febrile seizure-like events (FSLE) in hyperthermia, extracellular recording in isolated hippocampus. Particulars: CPA added immediately after the first FSLE, P18 isolated hippocampus. The test is classed as cell-based. As to the method: FIG. 9A: unfiltered extracellular recording traces (DC mode) of the typical repeated FSLEs in P18 isolated mouse hippocampus. […] Immediately after that CPA was added.
Febrile seizure-like events (FSLE) emerge and terminate as sub-threshold bursts under conditions of hyperthermia at a temperature of about 39° C. in (FIGS. 6A-6C) while spontaneous inhibitory postsynaptic currents (IPSCs) evident at 32° C. (FIG. 6D) gradually diminish as the temperature increases (FIG. 6E). In hippocampal slices FSLEs emerged on the average at 38.5° C. in tissue from HET mice and at 40.5° C. in tissue from WT mice (FIGS. 7A-7B) where the FSLE durations was almost twice as long in HET tissue (FIG. 7C).

Test [2] relates to SMEI mice (SCN1A HET). Briefly: Acute CPA treatment, hyperthermia-induced seizures in vivo. More on the design: species or system mouse. As to the method: (§1) The model of SMEI used in these studies is caused by a knock-in nonsense substitution (CgG to TgA in exon 21) made within a loop between segments 5 and 6. Transgenic mice were provided by Drs. K. Yamakawa and I. Ogiwara (RIKEN, Japan (14)). All of the experiments on the mice (C57BL/6/129) involved in this project were performed in accordance with animal protocols approved by the Institutional Animal Care and Use Committee of the University of Houston. Heterozygous (HET) and wild-type (WT) mice were used.

Test [3] relates to CA1 pyramidal cells of HET SMEI mice. Put plainly: sEPSC and sIPSC whole-cell recordings after repeated CPA treatment. In kind it is in vivo, mouse. Particulars: repeated CPA treatment P11-P20, HET+CPA vs HET+vehicle. The procedure: For electrical whole-cell voltage-clamp recordings, borosilicate glass micropipettes (4-7 MΩ) were used containing (in mM): 116 Cesium gluconate, 6 KCl, 0.5 EGTA, 20 HEPES, 10 phosphocreatine, 0.3 NaGTP, 2 NaCl, 4 MgATP, and 0.3% Neurobiotin (pH 7.25, 295 mOsm) and 5 mM QX-314 (fast voltage-gated conductance blocker). Spontaneous inhibitory postsynaptic currents (IPSCs) and EPSCs were recorded in CA1 pyramidal cells. sIPSCs were recorded at −80 mV in the presence of APV (100 μM) and CNQX (40 μM). sEPSCs were recorded at −70 mV in the presence of inhibitory synaptic transmission blocker picrotoxin (50 μM). Amplitude and frequency of sEPSCs and sIPSCs were measured and compared between WT and HET. For IPSC calculations, activity was studied in three 20 second segments (twenty seconds apart) for each cell (N=8 HET, 6WT). Since EPSCs have lower frequency, two minute long segments were used for their analysis (N=6). Cumulative distribution of the amplitudes and inter-event interval (frequency) were plotted in Prism software. t-test analysis was used to compare IPSCs and EPSCs in HET and WT tissue. All recordings were performed at 32° C. temperature. […]

The subject of test [4] is SMEI mice (SCN1A HET). Briefly: Chronic CPA treatment (P11-P20), hyperthermia-induced seizures in vivo. Further details: species or system mouse. As to the method: as §1
The A1R agonist CPA has an acute effect on the control of hyperexcitable neural network, hyperthermia-induced seizure in vitro and in vivo. To investigate if the chronic treatment of mSMEI with CPA can have long-term effects on the rewiring of the neural circuit and FS threshold activity, CPA was injected into the SMEI mice twice a day for continuous 10 days during the critical activity-dependent period of development (P11-P20), and the effects were determined 24 hours and 10 days after the last injection.

In test [5] the test system is hippocampal CA1 circuit of HET (SCN1A mSMEI) tissue. Briefly: Voltage-sensitive dye imaging (VSDI) of evoked neural activity propagation, FWHM. The test is classed as cell-based, mouse. To be noted: for abnormally wide circuit excitation, neural activity map (dF/Fmax) / spatial extent of neural signal propagation: 50 nM CPA; for abnormally wide circuit excitation, neural activity map (dF/Fmax): HET animal P19; for spatial extent of neural signal propagation: HET tissue. The procedure:
(§2) Mice (P16-22) were anesthetized with isofluorane, decapitated, and the brains immediately removed. Transverse hippocampal sections (350 μm thickness) were cut in cold dissection solution (in mM: 2.6 KCl, 1.23 NaH2PO4, 24 NaHCO3, 0.1 CaCl2, 2 MgCl2, 205 sucrose, and 10 glucose) using a vibratome and were incubated for half an hour in normal artificial cerebrospinal fluid (ACSF; pH 7.3, 30° C.) containing (in mM) 130 NaCl, 1.2 MgSO4, 3.5 KCl, 1.2 CaCl2, 10 glucose, 2.5 NaH2PO4, 24 NaHCO3 aerated with 95% O2-5% CO2. After the incubation, slices were stained with Di-4ANNEPS (final dye concentration is 0.05 mg/ml) and left to recover for an additional hour at 30° C. (23). The slices were transferred to a submersion recording chamber (Warner Instr.) and continuously perfused (2 ml/min, at 30° C.) with the oxygenated ACSF.
A combination of in vitro electrophysiology (extracellular field potential recording and whole-cell patch clamp recordings) and fast voltage-sensitive dye imaging (VSDI) was used. All electrical recordings were performed using MCC 700 amplifiers (Axon Instruments). Electrical data was acquired at 4 KHz, digitized at 10 KHz using a Digidata DAC board and pClamp software. Optical data were recorded at 250 Hz with MiCam 02 (192×126 pixels, SciMedia USA).
(§3) To characterize excitatory neural circuit activity, stimulating electrodes (concentric bipolar metal electrodes, 200 μm in diameter (FHC)) were placed on the Shaffer collaterals. fEPSP recordings were performed in hippocampal slices concurrently with the VSDI (FIGS. 1A-1E). Extracellular recording electrodes ([…], 0.9% saline) were placed in the CA1 radiatum layer. To monitor Di-4ANNEPS signals, the slices were illuminated either with Halogen (150 W; excitation 522-550 nm; emission—580 nm; dichroic—565 nm).
(§4) To elicit short-term synaptic plasticity, Schaeffer collaterals were stimulated at 40 Hz frequency using 10 pulse (0.2 msec) trains. 40 Hz falls within the gamma frequency range and stimulation was repeated every 15 seconds with stimulus amplitude was set at the half of maximal fEPSP amplitude. fEPSP and VSDI optical data trials were synchronized.
Optical and electrical data were analyzed using Brain Vision and pClamp softwares. To increase signal to noise ratio, data analysis in individual slices and during pharmacological manipulations was performed on the averages of fifteen files (electrical and optical). Standard electrophysiological analysis techniques were used to analyze fEPSP, EPSC, and IPSC characteristics. For optical analysis, 1060 msec of data were fitted with an approximately Gaussian curve (25) and full width at half maximal (FWHM) values over the distance of 950 micrometers from the stimulating electrode toward subicullum were calculated using BrainVision (SciMedia). FWHM here quantifies distance of neuronal signal propagation (or decay). FWHM calculations along the orthodromic neural activity propagation trajectory included 15 frames before and 194 frames after the 40 Hz train stimulation, and was spanning over the evoked signal as shown in FIGS. 4A-4D. All results are reported as grouped averages with standard error of the mean. Results from WT and HET, or treated versus untreated groups were compared using unpaired and paired t-tests, respectfully. A p<0.05 was regarded as statistically significant value.

The subject of test [6] is hippocampal area CA1 of HET (SCN1A mSMEI) tissue. Briefly: Evoked fEPSP extracellular recordings in hippocampal slices, Schaeffer collateral stimulation (single pulse and 40 Hz trains). The test is classed as cell-based, mouse. To be noted: for population spike evoked by very low stimulation intensity: HET CA1; for fEPSP amplitude / synaptic excitability in HET tissue: HET hippocampus, ten pulse 40 Hz stimulation. As to the method:
as §2, §3
Input-output (I-O) characteristics of fEPSPs were calculated using the same intensities of stimulation and incrementally (0.05 mA) raising them until the maximal responses or population spikes were obtained. 1-0 calculations were performed in stained and unstained slices to rule out a possible modulation of Di-4ANEPPS on GABA receptors (24). The responses from stained and unstained slices were not statistically different and were pooled together for the final analysis.
as §4
To modulate hippocampal hyperexcitability A1R agonist N6-cyclopentyladenosine (CPA) was used. N6-cyclopentyladenosine dissolved in DMSO was added to the bath ACSF solution. N6-cyclopentyladenosine took effect within 2 minutes of its application. 10 and 1 μM and 500, 100, 50, and 10 nM concentrations of CPA were tested. Since N6-cyclopentyladenosine acts through G-protein linked mechanisms, the washout of N6-cyclopentyladenosine was not possible in the current experiments. […] A1R […] DPCPX concentration was 200 nM. All drugs and dye were obtained from Sigma-Aldrich.

A further test concerns SMEI seizures. Particulars: previously tested; cited from earlier work.
The mark [7] stands for this setting: 50 nM CPA, listed as N6-cyclopentyladenosine.

Regarding `OC[C@H]1O[C@@H](n2cnc3c(NC4CCCC4)ncnc32)[C@H](O)[C@@H]1O` [CPA, N6-cyclopentyladenosine], the “epileptogenic activity (repeated FSLEs) in hyperthermia” value in test [1] is “blocked epileptogenic activity in hyperthermia; also recorded: no repetitive FSLEs formed”. In addition, the seizure duration came to 2.26 ± 0.43 min in the test with SMEI mice (SCN1A HET) [2] (acute CPA 15 minutes before hyperthermia, vehicle 5.91±1.17 min); 2.26±0.43 in the test on SMEI mice (SCN1A HET) [2] (acute CPA i.p. 15 minutes prior, HET+saline 5.91±1.17 (figure legend)); 1.424±0.6904 with SMEI mice (SCN1A HET) [4] (chronic CPA, 24 hours after the last treatment, vehicle 3.980±0.6651). Also, the seizure latency in the test on SMEI mice (SCN1A HET) [2] (acute CPA 15 minutes before hyperthermia, vehicle 8.19±0.95 min) was 11.68 ± 0.70 min; with SMEI mice (SCN1A HET) [2] (acute CPA i.p. 15 minutes prior, HET+saline 8.19±0.95 (figure legend)), 11.68±0.70; with SMEI mice (SCN1A HET) [4] (chronic CPA, 24 hours after the last treatment, vehicle 8.080±1.772), 11.25±1.140. In addition, in test [3], the sIPSC amplitude entry is recorded as “does not cause significant change in sIPSCs; also recorded: no significant difference”. Besides, in test [3], the sIPSC interval result is listed as “does not cause significant change in sIPSCs; also recorded: no significant difference”. Besides, the seizure incidence was determined as 53% in the test with SMEI mice (SCN1A HET) [4] (chronic CPA twice a day P11-P20, 24 hours after the last treatment, vehicle 83.3%) and 43% in the test on SMEI mice (SCN1A HET) [4] (chronic CPA twice a day P11-P20, 10 days after the last treatment, vehicle 75%). Moreover, the “abnormally wide circuit excitation, neural activity map (dF/Fmax)” value is “reduced significantly; also recorded: reduced the abnormally wide circuit excitation” in test [5] and “abnormally wide CA1 circuit activation was confined; also recorded: reduced the abnormally wide circuit excitation” in test [5] (listed as N6-cyclopentyladenosine). The “spatial extent of neural signal propagation” value in test [5] (40 Hz train) is recorded as “significantly reduced the spatial extent of neural signal propagation”; in test [5] (40 Hz train, listed as N6-cyclopentyladenosine) it was “significantly reduced the spatial extent of neural signal propagation; also recorded: reduced propagation of the evoked signal”. In addition, the “FWHM, spread of the evoked activity” value in test [5] (HET slices + 50 nM CPA, 40 Hz train, untreated HET 591±106 μm, N=6 slices) amounted to 491±106 μm. The “population spike evoked by very low stimulation intensity” value in test [6] (50 nM CPA) is reported as “reduced this spike into a field EPSP response”; in test [6] (setting [7]), “reduced this spike into a fEPSP response; also recorded: effectively reduced this exaggerated response into fEPSP”. Further, the “fEPSP amplitude / synaptic excitability in HET tissue” value was “significantly reduced fEPSP; also recorded: significantly reduced hippocampal circuit hyperexcitability without blocking excitatory synaptic transmission” in test [6] (50 nM CPA) and “significantly reduced fEPSP trains; also recorded: significantly reducing synaptic excitability in HET tissues, without blocking synaptic transmission” in test [6] (setting [7]). Also, the “short-term plasticity (STP), fEPSP amplitude ratios pulses #2-10 to #1” value in test [6] (50 nM CPA, HET vs HET+CPA, 40 Hz train) was “effected the short-term plasticity; also recorded: all statistically different”. The fEPSPs entry in test [6] (1 μM N6-cyclopentyladenosine in bath ACSF) and in test [6] (10 μM N6-cyclopentyladenosine in bath ACSF) was “completely eliminated fEPSPs” in each case. For the same compound, the “time until N6-cyclopentyladenosine took effect after its application” value in test [6] (bath application in ACSF) is no more than 2 min.

As to `CCCn1c(=O)c2[nH]c(C3CCCC3)nc2n(CCC)c1=O` [DPCPX], the “effect of DPCPX on the CPA-induced decrease of fEPSP amplitude” value in test [6] (DPCPX 200 nM added to ACSF with 50 nM CPA) is “prevented N6-cyclopentyladenosine to decrease fEPSP amplitude; also recorded: N6-cyclopentyladenosine was ineffective at reducing fEPSP”.

Consider `NC(=O)N1c2ccccc2C=Cc2ccccc21` [carbamazepine], for which, in the test on SMEI seizures, the “efficacy against SMEI seizures” value is “none of these agents worked reliably”.

As to `Nc1nnc(-c2cccc(Cl)c2Cl)c(N)n1` [lamotrigine], the “efficacy against SMEI seizures” value in the test on SMEI seizures was “none of these agents worked reliably”.
